Laboratory results from patent US20240158446A1, “CYCLIC COMPOUND HAVING SELECTIVE INHIBITORY ACTION ON KRAS OVER HRAS AND NRAS” (CHUGAI SEIYAKU KABUSHIKI KAISHA, priority 2021, published 2024).

Experiments:
[1] = molecular target: GDP-bound NRAS wild-type protein (Homo sapiens, UniProt P01111); test: Binding to NRAS by surface plasmon resonance (SPR), Single Cycle Kinetics; details: SPR, GDP-bound NRAS wild-type protein vs GDP-bound KRAS wild-type protein
[2] = molecular target: GDP-bound HRAS wild-type protein (Homo sapiens, UniProt P01112); test: Binding to HRAS by surface plasmon resonance (SPR), Single Cycle Kinetics; details: SPR, GDP-bound HRAS wild-type protein vs GDP-bound KRAS wild-type protein
GDP-bound HRAS wild-type protein, sequence (P01112 whole entry): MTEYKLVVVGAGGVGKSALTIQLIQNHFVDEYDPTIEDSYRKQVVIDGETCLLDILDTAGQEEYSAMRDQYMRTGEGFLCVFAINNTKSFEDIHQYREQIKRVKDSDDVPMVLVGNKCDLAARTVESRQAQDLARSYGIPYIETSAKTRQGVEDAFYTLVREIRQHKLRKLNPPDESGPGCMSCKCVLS

GDP-bound NRAS wild-type protein, sequence (P01111 whole entry): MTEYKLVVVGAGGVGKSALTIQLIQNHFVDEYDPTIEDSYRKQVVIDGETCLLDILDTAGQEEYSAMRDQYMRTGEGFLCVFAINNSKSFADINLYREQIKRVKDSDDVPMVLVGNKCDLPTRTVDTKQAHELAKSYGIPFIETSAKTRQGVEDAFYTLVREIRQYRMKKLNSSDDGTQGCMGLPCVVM

Structure (SMILES)	NRAS/KRAS (ratio of KD value for NRAS to KD value for KRAS) [1]	HRAS/KRAS (ratio of KD value for HRAS to KD value for KRAS) [2]
CCC[C@H]1C(=O)N[C@@H](C2CCCC2)C(=O)N(C)CC(=O)N(C)[C@H]2C/C=C\CCN(C2=O)[C@@H](Cc2ccc(C)cc2)C(=O)N(C)CC(=O)N[C@@H](CCc2ccc(C(F)(F)F)c(Cl)c2)C(=O)N2C[C@H](OCC)C[C@H]2C(=O)NC2(CC(C)(C)C2)C(=O)N(C)[C@@H](CC(C)C)C(=O)N(C)[C@H](C(=O)N(C)C)CC(=O)N1C [PP2190]	A (a compound having 10 or more and less than 20 is denoted as A)	A (a compound having 10 or more and less than 20 is denoted as A)
CC[C@@H]1C[C@H]2C(=O)NC3(CCCC3)C(=O)N(C)[C@@H](C3CCCC3)C(=O)N(C)[C@H](C(=O)N(C)C)CC(=O)N(C)[C@@H](CC(C)C)C(=O)N[C@@H]([C@@H](C)CC)C(=O)N(C)CC(=O)N(C)[C@H]3C/C=C\CCN(C3=O)[C@@H](Cc3ccc(C)cc3)C(=O)N(C)CC(=O)N[C@@H](CCc3cc(F)c(C(F)(F)F)c(F)c3)C(=O)N2C1 [PP2191]	A (a compound having 10 or more and less than 20 is denoted as A)	B (a compound having 3 or more and less than 10 is denoted as B)
CCC[C@H]1C(=O)N[C@@H](C2CCCC2)C(=O)N(C)CC(=O)N(C)[C@H]2C/C=C\CCN(C2=O)[C@@H](Cc2ccc(C)cc2)C(=O)N(C)CC(=O)N[C@@H](CCc2ccc(C(F)(F)F)c(Cl)c2)C(=O)N2C[C@H](OCC)C[C@H]2C(=O)NC2(CC(C)(C)C2)C(=O)N(C)[C@@H](CC(F)(F)F)C(=O)N(C)[C@H](C(=O)N(C)C)CC(=O)N1C [PP2192]	A (a compound having 10 or more and less than 20 is denoted as A)	A (a compound having 10 or more and less than 20 is denoted as A)
CCC[C@@H]1C[C@H]2C(=O)NC3(CCCC3)C(=O)N(C)[C@@H](C3CCCC3)C(=O)N(C)[C@H](C(=O)N(C)C)CC(=O)N(C)[C@@H](CC(C)C)C(=O)N[C@@H]([C@@H](C)CC)C(=O)N(C)CC(=O)N(C)[C@H]3C/C=C\CCN(C3=O)[C@@H](Cc3ccc(C)cc3)C(=O)N(C)CC(=O)N[C@@H](CCc3cc(F)c(C(F)(F)F)c(F)c3)C(=O)N2C1 [PP2193]	A (a compound having 10 or more and less than 20 is denoted as A)	A (a compound having 10 or more and less than 20 is denoted as A)
CCC[C@H]1C(=O)N[C@@H](C(CC)CC)C(=O)N(C)CC(=O)N(C)[C@H]2C/C=C\CCN(C2=O)[C@@H](Cc2ccc(C)cc2)C(=O)N(C)CC(=O)N[C@@H](CCc2ccc(C(F)(F)F)c(Cl)c2)C(=O)N2C[C@H](OCC)C[C@H]2C(=O)NC2(CC(C)(C)C2)C(=O)N(C)[C@@H](CC(C)C)C(=O)N(C)[C@H](C(=O)N(C)C)CC(=O)N1C [PP2202]	A (a compound having 10 or more and less than 20 is denoted as A)	A (a compound having 10 or more and less than 20 is denoted as A)
CCCOC[C@H]1C(=O)N[C@@H]([C@@H](C)CC)C(=O)N(C)CC(=O)N(C)[C@H]2C/C=C\CCN(C2=O)[C@@H](Cc2ccc(C)cc2)C(=O)N(C)CC(=O)N[C@@H](CCc2cc(F)c(C(F)(F)F)c(F)c2)C(=O)N2C[C@H](CCC)C[C@H]2C(=O)NC2(CC(C)(C)C2)C(=O)N(C)[C@@H](C2CCCC2)C(=O)N(C)[C@H](C(=O)N(C)C)CC(=O)N1C [PP2203]	A (a compound having 10 or more and less than 20 is denoted as A)	A (a compound having 10 or more and less than 20 is denoted as A)
CCC[C@H]1C(=O)N[C@@H]([C@@H](C)CC)C(=O)N(C)CC(=O)N(C)[C@H]2C/C=C\CCN(C2=O)[C@@H](Cc2ccc(C)cc2)C(=O)N(C)CC(=O)N[C@@H](CCc2ccc(C(F)(F)F)c(Cl)c2)C(=O)N2C[C@H](C)C[C@H]2C(=O)NC2(CC(C)(C)C2)C(=O)N(C)[C@@H](C2CCCC2)C(=O)N(C)[C@H](C(=O)N(C)C)CC(=O)N1C [PP2210]	A (a compound having 10 or more and less than 20 is denoted as A)	B (a compound having 3 or more and less than 10 is denoted as B)
CCC[C@@H]1C[C@H]2C(=O)NC3(CC(C)(C)C3)C(=O)N(C)[C@@H](C3CCCC3)C(=O)N(C)[C@H](C(=O)N(C)C)CC(=O)N(C)[C@@H](CCC)C(=O)N[C@@H]([C@@H](C)CC)C(=O)N(C)CC(=O)N(C)[C@H]3C/C=C\CCN(C3=O)[C@@H](Cc3ccc(C)cc3)C(=O)N(C)CC(=O)N[C@@H](CCc3ccc(C(F)(F)F)c(Cl)c3)C(=O)N2C1 [PP2214]	A (a compound having 10 or more and less than 20 is denoted as A)	A (a compound having 10 or more and less than 20 is denoted as A)
CCC[C@H]1C(=O)N[C@@H]([C@@H](C)CC)C(=O)N(C)CC(=O)N(C)[C@H]2C/C=C\CCN(C2=O)[C@@H](Cc2ccc(C)cc2)C(=O)N(C)CC(=O)N[C@@H](CCc2cc(F)c(C(F)(F)F)c(F)c2)C(=O)N2C[C@H](CC)C[C@H]2C(=O)NC2(CCCC2)C(=O)N(C)[C@@H](C2CCCC2)C(=O)N(C)[C@H](C(=O)N(C)C)CC(=O)N1C [PP2216]	A (a compound having 10 or more and less than 20 is denoted as A)	A (a compound having 10 or more and less than 20 is denoted as A)
CCCOC[C@H]1C(=O)N[C@@H]([C@@H](C)CC)C(=O)N(C)CC(=O)N(C)[C@H]2C/C=C\CCN(C2=O)[C@@H](Cc2ccc(C)cc2)C(=O)N(C)CC(=O)N[C@@H](CCc2cc(F)c(C(F)(F)F)c(F)c2)C(=O)N2C[C@H](CC)C[C@H]2C(=O)NC2(CCCC2)C(=O)N(C)[C@@H](C2CCCC2)C(=O)N(C)[C@H](C(=O)N(C)C)CC(=O)N1C [PP2218]	A (a compound having 10 or more and less than 20 is denoted as A)	A (a compound having 10 or more and less than 20 is denoted as A)
CCC[C@H]1C(=O)N[C@@H]([C@H](C)CC)C(=O)N(C)CC(=O)N(C)[C@H]2C/C=C\CCN(C2=O)[C@@H](Cc2ccc(C)cc2)C(=O)N(C)CC(=O)N[C@@H](CCc2ccc(C(F)(F)F)c(Cl)c2)C(=O)N2C[C@H](OCC)C[C@H]2C(=O)NC2(CC(C)(C)C2)C(=O)N(C)[C@@H](CC(C)(C)C)C(=O)N(C)[C@H](C(=O)N(C)C)CC(=O)N1C [PP2219]	A (a compound having 10 or more and less than 20 is denoted as A)	A (a compound having 10 or more and less than 20 is denoted as A)
CC[C@@H]1C[C@H]2C(=O)NC3(CCC3)C(=O)N(C)[C@@H](C3CCCC3)C(=O)N(C)[C@H](C(=O)N(C)C)CC(=O)N(C)[C@@H](CC(C)C)C(=O)N[C@@H]([C@@H](C)CC)C(=O)N(C)CC(=O)N(C)[C@H]3C/C=C\CCN(C3=O)[C@@H](Cc3ccc(C)cc3)C(=O)N(C)CC(=O)N[C@@H](CCc3cc(F)c(C(F)(F)F)c(F)c3)C(=O)N2C1 [PP2220]	A (a compound having 10 or more and less than 20 is denoted as A)	A (a compound having 10 or more and less than 20 is denoted as A)
CCC[C@H]1C(=O)N[C@@H]([C@H](C)CC)C(=O)N(C)CC(=O)N(C)[C@H]2C/C=C\CCN(C2=O)[C@@H](Cc2ccc(C)cc2)C(=O)N(C)CC(=O)N[C@@H](CCc2ccc(C(F)(F)F)c(Cl)c2)C(=O)N2C[C@H](OCC)C[C@H]2C(=O)NC2(CC(C)(C)C2)C(=O)N(C)[C@@H](C2CCCC2)C(=O)N(C)[C@H](C(=O)N(C)C)CC(=O)N1C [PP2221]	A (a compound having 10 or more and less than 20 is denoted as A)	A (a compound having 10 or more and less than 20 is denoted as A)
CC[C@H](C)[C@@H]1NC(=O)[C@H](CC(C)C)N(C)C(=O)C[C@@H](C(=O)N(C)C)N(C)C(=O)[C@H](C2CCCC2)N(C)C(=O)C2(CC(C)(C)C2)NC(=O)[C@@H]2C[C@@H](C)CN2C(=O)[C@H](CCc2cc(F)c(C(F)(F)F)c(F)c2)NC(=O)CN(C)C(=O)[C@H](Cc2ccc(C)cc2)N2CC/C=C\C[C@@H](C2=O)N(C)C(=O)CN(C)C1=O [PP2223]	A (a compound having 10 or more and less than 20 is denoted as A)	A (a compound having 10 or more and less than 20 is denoted as A)
CCCOC[C@H]1C(=O)N[C@@H]([C@@H](C)CC)C(=O)N(C)CC(=O)N(C)[C@H]2C/C=C\CCN(C2=O)[C@@H](Cc2ccc(C)cc2)C(=O)N(C)CC(=O)N[C@@H](CCc2cc(F)c(C(F)(F)F)c(F)c2)C(=O)N2C[C@H](C)C[C@H]2C(=O)NC2(CCCC2)C(=O)N(C)[C@@H](C2CCCC2)C(=O)N(C)[C@H](C(=O)N(C)C)CC(=O)N1C [PP2225]	A (a compound having 10 or more and less than 20 is denoted as A)	A (a compound having 10 or more and less than 20 is denoted as A)
CCC[C@@H]1C[C@H]2C(=O)NC3(CCCC3)C(=O)N(C)[C@@H](C3CCCC3)C(=O)N(C)[C@H](C(=O)N(C)C)CC(=O)N(C)[C@@H](CC)C(=O)N[C@@H]([C@@H](C)CC)C(=O)N(C)CC(=O)N(C)[C@H]3C/C=C\CCN(C3=O)[C@@H](Cc3ccc(C)cc3)C(=O)N(C)CC(=O)N[C@@H](CCc3cc(F)c(C(F)(F)F)c(F)c3)C(=O)N2C1 [PP2227]	A (a compound having 10 or more and less than 20 is denoted as A)	A (a compound having 10 or more and less than 20 is denoted as A)
CCC[C@@H]1C[C@H]2C(=O)NC3(CCC3)C(=O)N(C)[C@@H](C3CCCC3)C(=O)N(C)[C@H](C(=O)N(C)C)CC(=O)N(C)[C@@H](CC)C(=O)N[C@@H]([C@@H](C)CC)C(=O)N(C)CC(=O)N(C)[C@H]3C/C=C\CCN(C3=O)[C@@H](Cc3ccc(C)cc3)C(=O)N(C)CC(=O)N[C@@H](CCc3cc(F)c(C(F)(F)F)c(F)c3)C(=O)N2C1 [PP2233]	A (a compound having 10 or more and less than 20 is denoted as A)	A (a compound having 10 or more and less than 20 is denoted as A)
